Earlier results in patent US20210236593A1, “METHODS OF SUPPORTING WEIGHT MAINTENANCE BY DECREASING THE ACTIVITY OF FAM46A” (SOCIETE DES PRODUITS NESTLE S.A., priority 2016, published 2021).
Entries after “also recorded” stand apart in the source; their conditions may differ. Structures can show the parent of a compound that is named as a salt.

Tested on: FAM46A
Settings: effect of the chemical on FAM46A expression

**Q.** Which “Interaction Actions” value does the source give for `[CH3][Hg][Cl]` [Methylmercuric chloride] here?
**A.** The value was “Decreases expression”.

**Q.** Which “Interaction Actions” value does the source give for `CCc1nn(CCCN2CCN(c3cccc(Cl)c3)CC2)c(=O)n1CCOc1ccccc1` [Nefazodone, reference compound] here?
**A.** Its value is “Decreases expression”.

**Q.** With `CC1=C(/C=C/C(C)=C/C=C/C(C)=C/C(=O)O)C(C)(C)CCC1` [Tretinoin, reference compound] as the compound, how does the “Interaction Actions” value read?
**A.** Its value is “Decreases expression”.

**Q.** With `Cc1oncc1C(=O)Nc1ccc(C(F)(F)F)cc1` [Leflunomide, reference compound] as the compound, how does the “Interaction Actions” value read?
**A.** The value was “Decreases expression”.

**Q.** For `Clc1cc2c(cc1Cl)Oc1cc(Cl)c(Cl)cc1O2` [Tetrachlorodibenzodioxin], which “Interaction Actions” value is on record?
**A.** Its value is “Decreases expression”.

**Q.** Which “Interaction Actions” value does the source give for `N#Cc1nn(-c2c(Cl)cc(C(F)(F)F)cc2Cl)c(N)c1[S+]([O-])C(F)(F)F` (stereo not drawn) [Fipronil] here?
**A.** The value was “Decreases expression”.

**Q.** Which “Interaction Actions” value does the source give for `OO` [Hydrogen Peroxide] here?
**A.** Its value is “Affects expression; also recorded: Decreases expression”.

**Q.** For `C=CC1(C)OC(=O)N(c2cc(Cl)cc(Cl)c2)C1=O` (stereo not drawn) [Vinclozolin], which “Interaction Actions” value is on record?
**A.** Its value is “Affects expression; also recorded: Decreases expression”.

**Q.** Which “Interaction Actions” value does the source give for `Cc1cccc(Nc2cc(Cl)nc(SCC(=O)O)n2)c1C` [Pirinixic acid, reference compound] here?
**A.** The value was “Decreases expression”.

**Q.** With `Nc1ccn([C@@H]2O[C@H](CO)[C@@H](O)[C@@H]2O)c(=O)n1` [Cytarabine, reference compound] as the compound, how does the “Interaction Actions” value read?
**A.** The value was “Decreases expression”.

**Q.** Which “Interaction Actions” value does the source give for `Nc1ccccc1NC(=O)c1ccc(CNC(=O)OCc2cccnc2)cc1` [Entinostat, reference compound] here?
**A.** The value was “Decreases expression”.

**Q.** Which “Interaction Actions” value does the source give for `CCCC(CCC)C(=O)O` [Valproic Acid, reference compound] here?
**A.** The value was “Decreases expression”.

**Q.** With `CN(C)C(=O)Nc1ccc(Cl)c(Cl)c1` [Diuron] as the compound, how does the “Interaction Actions” value read?
**A.** Its value is “Decreases expression”.

**Q.** With `CC(/C=C/C(=O)NO)=C\[C@@H](C)C(=O)c1ccc(N(C)C)cc1` [Trichostatin A, reference compound] as the compound, how does the “Interaction Actions” value read?
**A.** The value was “Decreases expression”.

**Q.** With `NC(=O)N1c2ccccc2C=Cc2ccccc21` [Carbamazepine, reference compound] as the compound, how does the “Interaction Actions” value read?
**A.** Its value is “Affects expression”.

**Q.** For `O=C(NN=C1CCCCC1)C(=O)NN=C1CCCCC1` [Cuprizone, reference compound], which “Interaction Actions” value is on record?
**A.** Its value is “Decreases expression”.

**Q.** For `c1ccc2c(c1)cc1ccc3cccc4ccc2c1c34` [Benzo(a)pyrene], which “Interaction Actions” value is on record?
**A.** Its value is “Decreases expression”.

**Q.** For `CCCCOC(=O)c1ccccc1C(=O)OCCCC` [Dibutyl Phthalate], which “Interaction Actions” value is on record?
**A.** The value was “Decreases expression”.

**Q.** Which “Interaction Actions” value does the source give for `CCOC(=O)/C=C\C(=O)OCC` [Diethyl maleate] here?
**A.** Its value is “Decreases expression”.

**Q.** Which “Interaction Actions” value does the source give for `O=C(O)C(F)(F)C(F)(F)C(F)(F)C(F)(F)C(F)(F)C(F)(F)C(F)(F)C(F)(F)C(F)(F)C(F)(F)F` [Perfluoro-n-undecanoic acid] here?
**A.** Its value is “Decreases expression”.

**Q.** Which “Interaction Actions” value does the source give for `CC(=O)Nc1ccc(O)cc1` [Acetaminophen, reference compound] here?
**A.** Its value is “Affects expression”.
